Measured values: patent publication US11116219B2, “Method for controlling discharge-type multidrug resistant plant diseases” (SUMITOMO CHEMICAL COMPANY, LIMITED, priority 2017, dated 2021)

What was measured:
[1] = test system: Efflux type multidrug resistant wheat Septoria leaf blotch fungus (Zymoseptoria tritici), fungus strain St 106-6; assay: Control test against efflux type multidrug resistant wheat Septoria leaf blotch fungus (titer plate growth, absorbance at 600 nm); format: cell-based
Description: (§1) Control test against Efflux type multidrug resistant wheat Septoria leaf blotch fungus (Zymoseptoria tritici)
(§2) Each of the present compound (1) and tolnaftrate was diluted with dimethyl sulfoxide to a prescribed concentration thereof, respectively. Each of the chemical solutions comprising the respective testing compound was dispensed into a titer plate (with 96 wells) in the amount of 1 μL. […] The plate was cultured at 18° C. for 4 days, thereby allowing each wheat Septoria leaf blotch fungus to undergo proliferation, and the absorbance at 600 nm of each well of the titer plate was then measured to determine a degree of growth of the wheat Septoria leaf blotch fungus (treated group). […]
(§3) The efficacy was calculated from the degree of the growth by the below-mentioned “Equation 1”, and then each EC50 value of the testing compound, respectively against the efflux type multidrug resistant fungus strains and the wild-type fungus strain was calculated. Next, as shown in the below-mentioned “Equation 2”, an EC50 value ratio was calculated by dividing an EC50 value against the efflux type multidrug resistant fungus strains by an EC50 value against the wild-type fungus strain. […]

[2] = test system: grapes gray mold fungus (Botrytis cinerea) wild-type fungus strain; assay: Control test against grapes gray mold fungus, wild-type fungus strain (titer plate growth, absorbance at 600 nm); format: cell-based; details: PDB culture media, 18° C., 2 days
Description: (§4) Control Test Against Efflux Type Multidrug Resistant Grapes Gray Mold Fungus (Botrytis cinerea)
(§5) Each of the present compound (1), fludioxonil and tolnaftrate was diluted with dimethyl sulfoxide to a prescribed concentration thereof, respectively. Each of the chemical solutions comprising the respective testing compound was dispensed into a titer plate (with 96 wells) in the amount of 1 μL. […] The plate was cultured at 18° C. for 2 days, thereby allowing each grapes gray mold fungus to undergo proliferation, and the absorbance at 600 nm of each well of the titer plate was then measured to determine a degree of growth of each of the grapes gray mold fungi (treated group). […]
(§6) The efficacy was calculated from the degree of the growth by the below-mentioned “Equation 1”, and then each EC50 value of the testing compound, respectively against the efflux type multidrug resistant fungus strains and the wild-type fungus strain was calculated. Also, an EC50 value ratio was calculated by the above-mentioned “Equation 2”.

[3] = test system: efflux type multidrug resistant fungus strain 1: ABC transporter-overexpressing fungus strain (Bc-56) of grapes gray mold fungus (Botrytis cinerea); assay: Control test against efflux type multidrug resistant grapes gray mold fungus, strain 1; format: cell-based
Description: as §4, §5, §6

[4] = test system: efflux type multidrug resistant fungus strain 2: MFS transporter-overexpressing fungus strain (Bc-107) of grapes gray mold fungus (Botrytis cinerea); assay: Control test against efflux type multidrug resistant grapes gray mold fungus, strain 2; format: cell-based
Description: as §4, §5, §6

[5] = test system: efflux type multidrug resistant fungus strain 3: ABC transporter and MFS transporter-overexpressing fungus strain (Bc-103) of grapes gray mold fungus (Botrytis …); assay: Control test against efflux type multidrug resistant grapes gray mold fungus, strain 3; format: cell-based, Botrytis cinerea
Description: as §4, §5, §6

[6] = test system: wheat Septoria leaf blotch fungus (Zymoseptoria tritici) wild-type fungus strain; assay: Control test against wheat Septoria leaf blotch fungus, wild-type fungus strain (titer plate growth, absorbance at 600 nm); format: cell-based; details: PDB culture media, 18° C., 4 days
Description: as §1, §2, §3

Cn1c(=O)c2sc3c(=O)n(C)c(=O)c3sc2c1=O [Present compound (1)]
EC50 value ratio ([1]; EC50 against efflux type multidrug resistant fungus strain / EC50 against wild-type fungus strain, Zymoseptoria tritici): 1.1 | EC50 value, Efflux type multidrug resistant fungus strain ([1]; Zymoseptoria tritici St 106-6, PDB culture media, 18° C., 4 days): 1.3 ppm | EC50 value, Wild-type fungus strain [2]: 1.9 ppm | EC50 value, Efflux type multidrug resistant fungus strain 1 ([3]; Botrytis cinerea Bc-56 (ABC transporter-overexpressing), 18° C., 2 days): 1.7 ppm | EC50 value ratio 1 ([3]; EC50 against efflux type multidrug resistant strain 1 / EC50 against wild-type, Botrytis cinerea): 0.89 | EC50 value, Efflux type multidrug resistant fungus strain 2 ([4]; Botrytis cinerea Bc-107 (MFS transporter-overexpressing), 18° C., 2 days): 1.7 ppm | EC50 value ratio 2 ([4]; EC50 against efflux type multidrug resistant strain 2 / EC50 against wild-type, Botrytis cinerea): 0.89 | EC50 value, Efflux type multidrug resistant fungus strain 3 ([5]; Botrytis cinerea Bc-103 (ABC and MFS transporter-overexpressing), 18° C., 2 days): 2.4 ppm | EC50 value ratio 3 ([5]; EC50 against efflux type multidrug resistant strain 3 / EC50 against wild-type, Botrytis cinerea): 1.3 | EC50 value, Wild-type fungus strain [6]: 1.2 ppm
